Test results reported in US20250213525A1, “Atopic Dermatitis Improving Agent, Interleukin Production Inhibitor, and Inhibitor of Expression of Interleukin Gene” (PIAS CORPORATION, priority 2022, published 2025).

Key:
Assay type in all cases: cell-based
[1] = system: interleukin-1β (IL-1β) gene; experiment: Inhibition of IL-1β gene expression in PMA-stimulated NHEK (real time PCR); details: Normal Human Epidermal Keratinocytes, PMA 25 ng/mL, 3 hours, compound 10 to 20 μM, GAPDH internal standard; FIG. 3 and FIG. 6
[2] = system: interleukin-33 (IL-33) gene; experiment: Inhibition of IL-33 gene expression in PMA-stimulated NHEK (real time PCR); details: Normal Human Epidermal Keratinocytes, PMA 25 ng/mL, 3 hours, compound 10 to 20 μM, GAPDH internal standard; FIG. 1 and FIG. 4
Experimental: The following provides the details of in vitro tests. 6×10^4 cells of Normal Human Epidermal Keratinocytes (NHEK manufactured by KURABO INDUSTRIES LTD.) were seeded on a 12 well plate and cultured at 37° C. under 5% CO2 conditions for 72 hours. The incubation medium was removed and then replaced by a culture medium including the following inflammatory stimulating substance (final concentration: 25 ng/mL) and the individual compound used in each of the above Test Examples, followed by further culturing at 37° C. under 5% CO2 conditions for 3 hours. Thereafter, total RNA was purified from cells according to the instruction manual of product name “PureLink RNA Mini kit” (INVITROGEN), and RNA purified using the test kit “ReverTra Ace™ qPCR RT Master Mix (manufactured by TOYOBO CO., LTD.)” was reverse-transcribed to cDNA. For the cDNA, IL-33 mRNA expression level was quantitatively evaluated by a real time PCR method. Glyceraldehyde-3-phosphate dehydrogenase (GAPDH) was used as an internal standard calibration. The compounds used in Test Examples were dissolved in dimethyl sulfoxide (DMSO) to prepare the individual stocks, and then respectively dissolved in the culture media to have a concentration of 10 to 20 μM. At this time, dilution was performed to allow DMSO to have a concentration (1% or less) at which no cytotoxicity is caused. […]

[3] = system: interleukin-1α (IL-1α) gene; experiment: Inhibition of IL-1α gene expression in PMA-stimulated NHEK (real time PCR); details: Normal Human Epidermal Keratinocytes, PMA 25 ng/mL, 3 hours, compound 10 to 20 μM, GAPDH internal standard; FIG. 2 and FIG. 5

CCCCCCCCCCCCCCCC(=O)OC[C@H](O)[C@H]1OC(=O)C(OCC(O)CO)=C1O (stereo partly drawn) [2-O-glyceryl-6-O-hexadecanoyl ascorbic acid]
inhibited: expression of interleukin-1β (IL-1β) gene [1] | IL-33 mRNA expression level [2] | expression of interleukin-1α (IL-1α) gene [3]
